Test results from patent US8080546B2, “Pyrazolo-pyridinone derivatives and methods of use” (Amgen Inc., priority 2007, dated 2011).

Experiments:
THP1 cells = experiment: Lipopolysaccharide-activated THP1 cell TNF production assay (THP1 cell based); details: Homo sapiens, THP-1, LPS-induced TNF-α
Method: Lipopolysaccharide-Activated THP1 Cell TNF Production Assay
THP1 cells are resuspended in fresh THP1 media (RPMI 1640, 10% heat-inactivated FBS, 1XPGS, 1XNEAA, plus 30 μM PME) at a concentration of 1E6/mL. One hundred microliters of cells per well are plated in a polystyrene 96-well tissue culture. One microgram per mL of bacterial LPS is prepared in THP1 media and is transferred to the wells. Test compounds are dissolved in 100% DMSO and are serially diluted 3-fold in a polypropylene 96-well microtiter plate (drug plate). HI control and LO control wells contain only DMSO. One microliter of test compound from the drug plate followed by 10 μL of LPS are transferred to the cell plate. The treated cells are induced to synthesize and secrete TNF-α at 37° C. for 3 h. Forty microliters of conditioned media are transferred to a 96-well polypropylene plate containing 110 μL of ECL buffer (50 mM Tris-HCl pH 8.0, 100 mM NaCl, 0.05% Tween 20, 0.05% NaN3 and 1% FBS) supplemented with 0.44 nM MAB610 monoclonal Ab (R&D Systems), 0.34 nM ruthenylated AF210NA polyclonal Ab (R&D Systems) and 44 μg/mL sheep anti-mouse M280 Dynabeads (Dynal). After a 2 h incubation at room temperature with shaking, the reaction is read on the ECL M8 Instrument (IGEN Inc.). A low voltage is applied to the ruthenylated TNF-α immune complexes, which in the presence of TPA (the active component in Origlo), results in a cyclical redox reaction generating light at […]. The amount of secreted TNF-α in the presence of compound compared with that in the presence of DMSO vehicle alone (HI control) is calculated using the formula: % control (POC)=(cpd−average LO)/(average HI−average LO)*100. Data (consisting of POC and inhibitor concentration in μM) is fitted to a 4-parameter equation (y=A+((B−A)/(1+((x/C)^D))), where A is the minimum y (POC) value, B is the maximum y (POC), C is the x (cpd concentration) at the point of inflection and D is the slope factor) using a Levenburg-Marquardt non-linear regression algorithm.

p38 = p38 (Homo sapiens, UniProt Q16539); experiment: p38 in-vitro HTRF enzyme assay; assay type: biochemical; details: recombinant human enzyme; range symbols; read-out: p38 enyme HTRF assay IC50
Method: p38 In-Vitro HTRF Enzyme Assay
The compounds of the invention can be tested for their respective affinities for the p38 protein using a conventional p38 in-vitro enzyme activity assay. For example, a P38-alpha HTRF assay may be used to measure the protein's in-vitro phosphorylation activity, and the data analyzed using time resolved fluorimetry techniques (FRET). A p38 HTRF assay is as follows. The kinase reaction buffer for p38α, p38β, p38δ and p38γ HTRF assays consists of 50 mM Tris-pH 7.5, 5 mM MgCl2, 0.1 mg/mL BSA, 100 μM Na3VO4 and 0.5 mM DTT. The HTRF detection buffer contains 100 mM HEPES-pH 7.5, 100 mM NaCl, 0.1% BSA, 0.05% Tween-20, and 10 mM EDTA. Each compound was dissolved in 100% DMSO and serially diluted (3 fold, 10 point) in a polypropylene 96-well microtiter plate (drug plate). The final starting concentration of the compound in the p38α and p38β enzymatic assays was about 1 μM. The final starting concentration of each compound in the p38δ and p38γ enzymatic assays was about 10 μM. The p38α, p38β, p38δ and p38γ kinase reactions were carried out in a polypropylene 96-well black round bottom assay plate in total volume of 30 μL kinase reaction buffer. Appropriate concentration of purified and activated enzyme (recombinant human) was mixed with indicated concentration of ATP and 100 nM GST-ATF2-Avitag, in the presence or absence (HI control) of each compound. In the absence of enzyme, the background was measured as LO control. HI controls and LO controls contained only DMSO. The reaction was allowed to incubate for 1 hour at RT. […] After 60 minutes incubation at room temperature, the assay plate was read in a Discovery Plate Reader. […] The resulting data was analyzed by taking the proportion of substrate phosphorylated in the kinase reaction in the presence of each individual compound and comparing it with that phosphorylated in the presence of DMSO vehicle alone (HI control). The data was calculated using the formula: % control (POC)=(compound−average LO)/(average HI−average LO)*100. […] All results were expressed as the mean±the standard error of the mean. Data acquisition and non-linear regression algorithms were performed using Activity Base v5.2 and XLfit software v4.1 respectively. Additional assay information may be obtained in Park Y W, Cummings R T, Wu L, et al. Homogeneous Proximity Tyrosine Kinase Assays Scintillation Proximity Assay versus Homogeneous Time-Resolved Fluorescence. Analytical Biochemistry.

IL-1 = experiment: LPS induced IL-1 cell based assay (LPS-activated monocytes); details: Homo sapiens, Monocyte
Method: Lipopolysaccharide-Activated Monocyte TNF Production Assay
Test compounds were evaluated in vitro for the ability to inhibit the production of TNF by monocytes activated with bacterial lipopolysaccharide (LPS). Fresh residual source leukocytes (a byproduct of plateletpheresis) were obtained from a local blood bank, and peripheral blood mononuclear cells (PBMCs) were isolated by density gradient centrifugation on Ficol-Paque Plus (Pharmacia). PBMCs were suspended at 2×10^6/mL in DMEM supplemented to contain 2% FCS, 10 mM, 0.3 mg/mL […], 100 U/mL penicillin G and […] streptomycin sulfate (complete media). Cells were plated into Falcon flat bottom, 96 well culture plates (200 μL/well) and cultured overnight at 37° C. and 6% CO2. Non-adherent cells were removed by washing with 200 μl/well of fresh medium. Wells containing adherent cells (˜70% monocytes) were replenished with 100 μL of fresh medium.
Preparation of Test Compound Stock Solutions
Test compounds were dissolved in […]. Compound stock solutions were prepared to an initial concentration of […]. Stocks were diluted initially to 20-200 μM in complete media. Nine two-fold serial dilutions of each compound were then prepared in complete medium.
Treatment of Cells with Test Compounds and Activation of TNF Production with Lipopolysaccharide
One hundred microliters of each test compound dilution were added to microtiter wells containing adherent monocytes and 100 μL complete medium. Monocytes were cultured with test compounds for 60 min at which time 25 μL of complete medium containing 30 ng/mL lipopolysaccharide from E. coli K532 were added to each well. Cells were cultured an additional 4 hrs. Culture supernatants were then removed and TNF presence in the supernatants was quantified using an ELISA. […]
Standard curve data were fit to a second order polynomial and unknown TNF-α concentrations determined from their OD by solving this equation for concentration. TNF concentrations were then plotted vs. test compound concentration using a second order polynomial. This equation was then used to calculate the concentration of test compounds causing a 50% reduction in TNF production.
Compounds of the invention can also be shown to inhibit LPS-induced release of IL-1β, IL-6 and/or IL-8 from monocytes by measuring concentrations of IL-1β, IL-6 and/or IL-8 by methods well known to those skilled in the art. […] Thus, the compounds of the invention may lower elevated levels of TNF-α, IL-1, IL-6, and IL-8 levels. Reducing elevated levels of these inflammatory cytokines to basal levels or below is favorable in controlling, slowing progression, and alleviating many disease states.

p38, sequence (Q16539 whole entry): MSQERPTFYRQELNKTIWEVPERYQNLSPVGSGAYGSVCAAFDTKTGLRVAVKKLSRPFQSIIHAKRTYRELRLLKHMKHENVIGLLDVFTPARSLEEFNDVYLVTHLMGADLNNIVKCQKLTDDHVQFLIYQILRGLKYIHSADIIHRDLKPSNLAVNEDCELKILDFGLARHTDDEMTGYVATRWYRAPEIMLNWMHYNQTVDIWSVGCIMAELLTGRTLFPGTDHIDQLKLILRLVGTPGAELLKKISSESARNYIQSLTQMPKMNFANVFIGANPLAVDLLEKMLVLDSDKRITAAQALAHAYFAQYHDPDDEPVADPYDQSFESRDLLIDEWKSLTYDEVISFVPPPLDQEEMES

Row | IC50 (THP1 cells; range symbols) | IC50 (p38) | IC50 (IL-1; range symbols) | IC50 (THP1 cells; actual values) | IC50 (IL-1; actual values) | SMILES
1 | < 0.025 µM | < 0.025 µM | < 0.025 µM | – | – | Cc1ccc(C(=O)NC2CC2)cc1Nc1cc(=O)n(C)c2c1cnn2-c1cccc(F)c1 [Example 4, N-cyclopropyl-3-((1-(3-fluorophenyl)-7-methyl-6-oxo-6,7-dihydro-1H-pyrazolo[3,4-b]pyridin-4-yl)amino)-4-methylbenzamide]
2 | < 0.025 µM | < 0.025 µM | 0.1 to 0.249 µM | – | – | Cc1ccc(C(=O)NC2CC2)cc1Oc1cc(=O)n(C)c2c1cnn2-c1cccc(F)c1 [Example 5, N-cyclopropyl-3-((1-(3-fluorophenyl)-7-methyl-6-oxo-6,7-dihydro-1H-pyrazolo[3,4-b]pyridin-4-yl)oxy)-4-methylbenzamide]
3 | < 0.025 µM | < 0.025 µM | 0.025 to 0.099 µM | – | – | Cn1c(=O)cc(Nc2cc(C(=O)NC3CC3)ccc2F)c2cnn(-c3ccc(F)cc3F)c21 [Example 7, N-cyclopropyl-3-((1-(2,4-difluorophenyl)-7-methyl-6-oxo-6,7-dihydro-1H-pyrazolo[3,4-b]pyridin-4-yl)amino)-4-fluorobenzamide]
4 | 0.1 to 0.249 µM | 1 to 5 µM | 0.25 to 0.999 µM | – | – | Cc1ccncc1Nc1cc(=O)n(C)c2c1cnn2-c1cc(F)ccc1F [Example 8, 1-(2,5-difluorophenyl)-7-methyl-4-((4-methyl-3-pyridinyl)amino)-1,7-dihydro-6H-pyrazolo[3,4-b]pyridin-6-one]
5 | 0.25 to 0.999 µM | 1 to 5 µM | 1 to 5 µM | – | – | Cn1c(=O)cc(Nc2ccc(F)cc2F)c2cnn(-c3ccc(F)cc3F)c21 [Example 9, 1-(2,4-difluorophenyl)-4-((2,4-difluorophenyl)amino)-7-methyl-1,7-dihydro-6H-pyrazolo[3,4-b]pyridin-6-one]
6 | 0.25 to 0.999 µM | 1 to 5 µM | 1 to 5 µM | – | – | Cn1c(=O)cc(Nc2ccc(F)cc2)c2cnn(-c3c(F)cccc3F)c21 [Example 10, 1-(2,6-difluorophenyl)-4-((4-fluorophenyl)amino)-7-methyl-1,7-dihydro-6H-pyrazolo[3,4-b]pyridin-6-one]
7 | < 0.025 µM | < 0.025 µM | < 0.025 µM | – | – | Cn1c(=O)cc(Nc2cc(C(=O)NC3CC3)ccc2Cl)c2cnn(-c3c(F)cccc3F)c21 [Example 11, 4-chloro-N-cyclopropyl-3-((1-(2,6-difluorophenyl)-7-methyl-6-oxo-6,7-dihydro-1H-pyrazolo[3,4-b]pyridin-4-yl)amino)benzamide]
8 | < 0.025 µM | < 0.025 µM | < 0.025 µM | – | – | Cn1c(=O)cc(Nc2cc(C(=O)NC3CC3)ccc2Cl)c2cnn(-c3cc(F)ccc3F)c21 [Example 12, 4-chloro-N-cyclopropyl-3-((1-(2,5-difluorophenyl)-7-methyl-6-oxo-6,7-dihydro-1H-pyrazolo[3,4-b]pyridin-4-yl)amino)benzamide]
9 | < 0.025 µM | – | < 0.025 µM | – | – | Cn1c(=O)cc(Nc2cc(C(=O)NC3CC3)ccc2Cl)c2cnn(-c3ccc(F)cc3F)c21 [Example 13, 4-chloro-N-cyclopropyl-3-((1-(2,4-difluorophenyl)-7-methyl-6-oxo-6,7-dihydro-1H-pyrazolo[3,4-b]pyridin-4-yl)amino)benzamide]
10 | < 0.025 µM | – | < 0.025 µM | – | – | Cc1ccc(C(=O)NC2CC2)cc1Nc1cc(=O)n(C)c2c1cnn2-c1ccc(F)cc1F [Example 14, N-cyclopropyl-3-((1-(2,4-difluorophenyl)-7-methyl-6-oxo-6,7-dihydro-1H-pyrazolo[3,4-b]pyridin-4-yl)amino)-4-methylbenzamide]
11 | < 0.025 µM | < 0.025 µM | < 0.025 µM | – | – | Cc1ccc(C(=O)NC2CC2)cc1Nc1cc(=O)n(C)c2c1cnn2-c1c(F)cccc1F [Example 15, N-cyclopropyl-3-((1-(2,6-difluorophenyl)-7-methyl-6-oxo-6,7-dihydro-1H-pyrazolo[3,4-b]pyridin-4-yl)amino)-4-methylbenzamide]
12 | < 0.025 µM | < 0.025 µM | 0.025 to 0.099 µM | – | – | Cc1ccc(C(=O)NC2CC2)cc1Oc1cc(=O)n(C)c2c1cnn2-c1c(F)cccc1F [Example 16, N-cyclopropyl-3-((1-(2,6-difluorophenyl)-7-methyl-6-oxo-6,7-dihydro-1H-pyrazolo[3,4-b]pyridin-4-yl)oxy)-4-methylbenzamide]
13 | 0.025 to 0.099 µM | – | 0.1 to 0.249 µM | – | – | Cc1ccc(C(=O)NC(C)(C)C)cc1Nc1cc(=O)n(C)c2c1cnn2-c1ccc(F)cc1F [Example 25, N-tert-butyl-3-((1-(2,4-difluorophenyl)-7-methyl-6-oxo-6,7-dihydro-1H-pyrazolo[3,4-b]pyridin-4-yl)amino)-4-methylbenzamide]
14 | – | – | – | 0.0082 µM | 0.101 µM | Cn1c(=O)cc(Oc2cc(C(=O)NC3CC3)ccc2Cl)c2cnn(-c3cc(F)ccc3F)c21 [Example 26, 4-chloro-N-cyclopropyl-3-((1-(2,5-difluorophenyl)-7-methyl-6-oxo-6,7-dihydro-1H-pyrazolo[3,4-b]pyridin-4-yl)oxy)benzamide]
